Key:
[1] = system: RAW264.7 cells; experiment: Binding of fluorescently-labeled LPS and CpG DNA with RAW264.7 cells (flow cytometry); type: cell-based, murine; conditions: 30 min; for fluorescence intensity of CpG DNA in RAW264.7 cells / fluorescence intensity of LPS in RAW264.7 cells: 200 μg/ml, p<0.01; for fluorescence intensity of CpG DNA in RAW264.7 cells: 5-FAM CpG DNA 10 μg/ml; for fluorescence intensity of LPS in RAW264.7 cells: FITC-labeled LPS 400 ng/ml
Protocol: 5.1 Methods: RAW264.7 cells were diluted to 1×10^6/ml in DMEM supplemented with 10% (v/v) NCS, added into 24-well cell culture plates, cultured at 37° C. in a 5% CO2 humidified incubator for 4 h, added with KA and KB (0, 200 μg/ml) after cells attachment, and then added with FITC-labeled LPS (final concentration of 400 ng/ml) and 5-FAM CpG DNA (final concentration of 10 μg/ml); at the same time, medium group without any reagent was established; subsequently, RAW264.7 cells were incubated for 30 min, washed thrice in PBS, resuspended with a pipet and transferred into EP tube, and immobilized with 4% paraform for 10 min; then cells were washed thrice in PBS, made into cell suspension, and detected by flow cytometry; the detections of each group were repeated thrice. Mean fluorescence intensity was expressed by means of Mean±standard deviation.
20.1 Methods: RAW264.7 cells was diluted to 1×10^6/ml in DMEM supplemented with 10% (v/v) NCS; 2 ml of the above suspension was added into 24-well cell culture plates and cultured at 37° C. in a 5% CO2 humidified incubator for 4 h; for the purpose of experiment three groups were established: medium group, stimulation group and KB treatment group; no reagent was added into medium group; stimulation group was added with FITC-LPS (200 ng/ml) and 5-FAM-CpG DNA (10 μg/ml); KB treatment group was added with KB (final concentrations of 50, 100 and 200 μM) in the meantime of adding LPS and CpG DNA; cells continued to be cultured for 30 min, washed thrice with PBS, and stored in dark place until the fluorescence intensity of cell membrane surfaces was detected by flow cytometry.

[2] = system: RAW264.7 cells; experiment: Release of TNF-α and IL-6 in RAW264.7 cells induced by LPS and CpG DNA (ELISA); type: cell-based, murine; conditions: for release of TNF-α induced by CpG DNA / release of TNF-α induced by LPS: 0, 50 and 100 ng/ml, 4 h, p<0.01
Protocol: 6.1 Methods: RAW264.7 cells were diluted to 1×10^6/ml in DMEM supplemented with 10% (v/v) NCS, added into 96-well plates (200 μl per well), and cultured at 37° C. in a 5% CO2 humidified incubator for 4 h until cells adhere to the wall; culture medium were replaced with fresh culture medium, added with KA and KB (final concentrations of 0, 50 and 100 ng/ml), and added with LPS (final concentration of 100 ng/ml) and CpG DNA (final concentration of 10 μg/ml); at the same time, medium group without any reagent was established; subsequently, RAW264.7 cells were incubated for 4 h; and the supernatant was collected for further detection; detection of the TNF-α concentration was performed according to the manufacturer's instructions of ELISA kit. Result was expressed by means of mean±standard deviation.
12.1 Methods: According to the method in embodiment 6, KB was dissolved in DMEM supplemented with 10% (v/v) NCS, subsequently transferred into Culture medium of RAW264.7 cells to achieved final concentrations of 100 and 200 μM, added with LPS (final concentration of 100 ng/ml) and CpG DNA (final concentration of 10 μg/ml), incubated for 24 h, and then collected supernatant; the concentration of TNF-α and IL-6 of each group was detected according to the manufacturer's instructions of ELISA kit; result was expressed by means of mean±standard deviation.
13.1 Methods: According to the method in embodiment 6, KB and PMB were separately dissolved in DMEM supplemented with 10% (v/v) NCS, subsequently transferred into culture medium of RAW264.7 cells to achieved final concentrations of 50, 100 and 200 μM, and then added with LPS (final concentration of 100 ng/ml) and CpG DNA (final concentration of 10 μg/ml); RAW264.7 cells continued to be incubated; the supernatant were collected four hours later for TNF-α detection; the supernatant were collected 12 hours later for IL-6 detection; the concentration of TNF-α and IL-6 of each group was detected according to the manufacturer's instructions of ELISA kit; result was expressed by means of mean±standard deviation.
17.1 Methods: RAW264.7 cells was diluted to 1×10^6/ml in DMEM supplemented with 10% (v/v) NCS, transferred into 96-well plates (200 μl per well) and cultured at 37° C. in a 5% CO2 humidified incubator for 4 h.
(1) Observation of dose-dependent effects: For the purpose of experiment a medium group and a KB treatment group were established; each group included three repeated wells; medium group was added with no reagent; KB treatment group was added with KB (final concentrations of 12.5, 25, 50, 100 and 200 μM) in each well, and subsequently added with LPS (final concentration of 100 ng/ml) or CpG DNA (final concentration of 10 μg/ml); cells were cultured at 37° C. in a 5% CO2 humidified incubator for 12 h; the supernatant was collected for further detection; operations were performed according to the manufacturer's instructions of ELISA kit, and the result was expressed by means of mean±standard deviation.
(2) Observation of time-dependent effects: For the purpose of experiment a medium group, a stimulation group and a KB treatment group were established; each group contained three repeated wells; medium group was added with no reagent; stimulation group was added with LPS and CpG DNA; KB treatment group was added with LPS and CpG DNA, in the meantime added with KB (final concentration of 200 μM); cells continued to be cultured at 37° C. in a 5% CO2 humidified incubator; the supernatant at time point of 0, 2, 4, 8, 12 and 24 h after stimulation was separately collected for further detection; detection of TNF-α concentration was performed according to the manufacturer's instructions of ELISA kit, and the result was expressed by means of mean±standard deviation.
18.1 Methods: RAW264.7 cells were diluted to 1×10^6/ml in DMEM supplemented with 10% (v/v) NCS, transferred into 96-well plates (200 μl per well) and cultured at 37° C. in a 5% CO2 humidified incubator for 4 h. […]

[3] = CpG DNA 10 μg/ml, dose-dependent
[4] = 50, 100 and 200 μM, CpG DNA 10 μg/ml, TNF-α at 4 h, IL-6 at 12 h
[5] = 50, 100 and 200 μM, LPS 100 ng/ml, TNF-α at 4 h, IL-6 at 12 h

In the case of NCCCN(CCCCNCCCNC(=O)CCc1ccc(O)c(O)c1)C(=O)CCc1ccc(O)c(O)c1 [KB, Kukoamine B], the “fluorescence intensity of CpG DNA in RAW264.7 cells” value [1] is reported as “significantly decrease the fluorescence intensity”, the “fluorescence intensity of LPS in RAW264.7 cells” value [1] is reported as “significantly decrease the fluorescence intensity” and the “mean fluorescence intensity (MFI) of cell membrane, 5-FAM-CpG DNA” value ([1]; KB 50, 100 and 200 μM, 5-FAM-CpG DNA 10 μg/ml) is reported as “decrease the MFI of cell membrane in a dose-dependent manner”. The “mean fluorescence intensity (MFI) of cell membrane, FITC-LPS” value ([1]; KB 50, 100 and 200 μM, FITC-LPS 200 ng/ml) was “decrease the MFI of cell membrane in a dose-dependent manner”, the “release of TNF-α induced by CpG DNA” value [2, 3] was “inhibit the release of TNF-α” and the “release of TNF-α induced by LPS” value ([2]; LPS 100 ng/ml, dose-dependent) was “inhibit the release of TNF-α”. The “release of TNF-α and IL-6 induced by CpG DNA” value [2, 4] was “inhibit the release of TNF-α and IL-6”, the “release of TNF-α and IL-6 induced by LPS” value [2, 5] was “inhibit the release of TNF-α and IL-6” and the “release of TNF-α and IL-6 induced by CpG DNA” value ([2]; 100 and 200 μM, CpG DNA 10 μg/ml, 24 h) was “inhibit the release of TNF-α and IL-6”. The “release of TNF-α and IL-6 induced by LPS” value ([2]; 100 and 200 μM, LPS 100 ng/ml, 24 h) was “inhibit the release of TNF-α and IL-6”, the “difference of RAW264.7 cells activation (TNF-α release) vs CpG DNA group” value ([2]; KB 12.5 μM, CpG DNA 10 μg/ml, 12 h, p>0.05) was “no statistic significance” and the “difference of RAW264.7 cells activation (TNF-α release) vs LPS group” value ([2]; KB 12.5 μM, LPS 100 ng/ml, 12 h, p>0.05) was “no statistic significance”. The “inhibitory activity on TNF-α release induced by CpG DNA” value ([2]; KB 25 μM and above, CpG DNA 10 μg/ml, 12 h, p<0.05 or p<0.01, dose-dependent) was “significantly increased”, the “inhibitory activity on TNF-α release induced by LPS” value ([2]; KB 25 μM and above, LPS 100 ng/ml, 12 h, p<0.05 or p<0.01) was “significantly increased” and the “TNF-α release, KB added before vs at the time of stimulation” value ([2]; KB 200 μM added 40 or 20 min before vs at 0 min, LPS 200 ng/ml or CpG DNA 20 μg/ml) was “no significant difference”. For the same molecule, the “TNF-α levels in supernatant at various time points, CpG DNA” value ([2]; KB 200 μM, CpG DNA 10 μg/ml, 0, 2, 4, 8, 12 and 24 h) was “all decreased”, the “release of TNF-α and IL-6 induced by LPS and CpG DNA” value ([2]; KB 200 μM, LPS 100 ng/ml, CpG DNA 10 μg/ml, selectivity panel) was “can only inhibit the release of TNF-α and IL-6 induced by LPS and CpG DNA” and the “TNF-α levels in supernatant at various time points, LPS” value ([2]; KB 200 μM, LPS 100 ng/ml, 0, 2, 4, 8, 12 and 24 h) was “all decreased”. For the same molecule, the “antagonistic effect on other irritant (Pam3CSK4, Poly I:C, TNF-α, IL-1β)” value ([2]; KB 200 μM, Pam3CSK4 10 μg/ml, Poly I:C 20 μg/ml, TNF-α 50 ng/ml, IL-1β 50 ng/ml) was “no antagonistic effect on other irritant”, the “release of TNF-α induced by LPS and CpG DNA under serum-free conditions” value ([2]; KB 50, 100 and 200 μM, serum-free DMEM, 12 h, dose-dependant) was “still inhibit the release of TNF-α” and the “inhibition on TNF-α release induced by LPS and CpG DNA, KB preincubated with stimulus” value ([2]; KB preincubated with LPS or CpG DNA for 20 min or 40 min before loading, 12 h) was “significantly enhanced”.

With polymyxin B [PMB, reference compound] the “release of TNF-α and IL-6 induced by CpG DNA” value [2, 4] was “can only inhibit the release of TNF-α and IL-6 induced by LPS” and the “release of TNF-α and IL-6 induced by LPS” value [2, 5] was “inhibit the release of TNF-α and IL-6”.

In the case of O=C(CCc1ccc(O)c(O)c1)NCCCNCCCCNCCCNC(=O)CCc1ccc(O)c(O)c1 [KA, Kukoamine A], the “fluorescence intensity of CpG DNA in RAW264.7 cells” value [1] is reported as “significantly decrease the fluorescence intensity”, the “fluorescence intensity of LPS in RAW264.7 cells” value [1] is reported as “significantly decrease the fluorescence intensity” and the “release of TNF-α induced by CpG DNA” value [2, 3] is reported as “inhibit the release of TNF-α”. The “release of TNF-α induced by LPS” value ([2]; LPS 100 ng/ml, dose-dependent) was “inhibit the release of TNF-α”.

Reference: patent publication US10039729B2, “Use of kukoamine A and kukoamine B” (Tianjin Chase Sun Pharmaceutical Co., Ltd., priority 2010, dated 2018)
